Entries after “also recorded” stand apart in the source; their conditions may differ. *1 amine or outer side, *2 acyl side, *3 side chain or, on linkers, in order; H or OH if unused. Where no end group is shown, it is not given here. [ ]: non-standard residue; d: D form. mp2 = 4-amino-1-methyl-1H-pyrrole-2-carboxylic acid, Cn1cc(N[*:1])cc1C(=O)[*:2]
Legend:
MRSA [1] = assay: MRSA skin infection model; type: in vivo, mouse; conditions: 48 or 96 h after bacterial challenge
Procedure: Infection was initiated 1 day after the hair was removed from the dorsal area of each mouse. RIVPA (SEQ ID NO. 5) (25 mg/kg IV or 100 mg/kg SC) was administered 4 h prior to infection and at various times after infection as indicated. Oral linezolid was used as the comparator and was administered daily at 12.5 mg/kg. On Day 0 (at −1 h) each mouse was anesthetized using isoflurane and the shaved dorsal skin was damaged by 7 consecutive applications and removals of surgical tape. This lesion was then immediately infected by topical administration of 10 μL of the bacterial suspension, delivering a total challenge of 7.6 login cfu per mouse. Efficacy was evaluated by measurement of the bacterial burden in punch biopsies of the skin at 48 h (FIG. 14—panel A) and 96 h (FIG. 14—panel B) following the bacterial challenge and by macroscopic assessment of digital images of the skin by a blinded, board-certified pathologist at 48 h (FIG. 14—panel C) and 96 h (FIG. 14—panel D) after infection. […] The mean bacterial burden for each therapeutic group was statistically compared to that of its time-matched saline control through use of a t-test comparison of means, assuming unequal variances, performed on Excel. Comparisons which returned a p value […] were considered statistically different.

MRSA [2] = assay: MRSA bacteremia model (other IDR peptides); type: in vivo; conditions: 5 mg/kg administered 4 hours prior to infection
male C3H/HeN mice = assay: chemotherapy-induced oral and gastrointestinal mucositis in the mouse; type: in vivo; conditions: 25 mg/kg IV on Days −1 and 2, scores evaluated for 4 days after induction
Procedure: In each study, 5-fluorouracil (60 mg/kg IP) was administered to male C3H/HeN mice on Days −4 and −2. […] […] Body weights were also measured daily and colitis severity was determined by video endoscopy on Days 4 and 7. In the first study, RIVPA (SEQ ID NO. 5) (25 mg/kg IV) was administered either once on Day −4 immediately prior to chemotherapy, twice on Days −4 and −2 immediately after chemotherapy or 3 times on Days −1, 2 and 5. […] In the second study, RIVPA (SEQ ID NO. 5) (25 mg/kg IV) was administered on either Days −1, 2 and 5, Days −1, 1 and 3 or Days 0, 2, and 4. […] In the third study, RIVPA (SEQ ID NO. 5) (25 or 5 mg/kg IV, as indicated) was administered either on Days −1, 2 and 5 or on Days 1 and 3. […] Statistical significance was assessed for oral mucositis using a chi-square analysis and for body weight area under the curve (AUC) with an ANOVA on ranks. […] Treatment with R(tBg)V1KR(tBg)V2 (SEQ ID NO. 91) and RIV(mp2)A-NH2 (SEQ ID NO. 92) was administered on Days −1 and 2 at a dose of 25 mg/kg IV.

| Compound | bacterial load in skin punch biopsies relative to control (MRSA [1]) | survival (MRSA [2]) | severity of oral mucositis (mucositis scores) (male C3H/HeN mice) | severity of oral mucositis (mucositis scores) (male C3H/HeN mice; listed as 92) |
| --- | --- | --- | --- | --- |
| CC(=O)NC[C@H]1CN(c2ccc(N3CCOCC3)c(F)c2)C(=O)O1 [linezolid, reference compound] | neither linezolid nor RIVPA (SEQ ID NO. 5) reduced bacterial load | – | – | – |
| RIVPAY* (RIVPA[dY]; also: C-terminal modification (*)) [RIVPAY* (SEQ ID NO. 90)] | – | improve survival | – | – |
| R(tBg)V1KR(tBg)V2 [R(tBg)V1KR(tBg)V2 (SEQ ID NO. 91)] | – | improve survival; also recorded: enhances survival | reduces; also recorded: demonstrated efficacy | – |
| RIV(mp2)A-NH2 (RIV[mp2]A-NH2; N-terminus assumed; SMILES CC[C@H](C)[C@H](NC(=O)[C@@H](N)CCCNC(=N)N)C(=O)N[C@H](C(=O)Nc1cc(C(=O)N[C@@H](C)C(N)=O)n(C)c1)C(C)C) [RIV(mp2)A-NH2 (SEQ ID NO. 92), mp2 = 4-Amino-1-methyl-1H-pyrrole-2-carboxylic acid] | – | enhances survival | reduces | demonstrated efficacy |

From patent publication US11311598B2, “Peptides and analogs for use in the treatment of oral mucositis” (Soligenix, Inc., priority 2013, dated 2022)
